Laboratory results published in ChEMBL document CHEMBL1201862, “PubChem BioAssay data set” (2004).
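These data come from cells grown in 96-well plates and exposed to compound for 48 hours at five concentrations. The concentration for 50% growth inhibition is given as GI50.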 Activity calls are given as the source filed them. Cut-off read from the data, not from the text of the source: active = GI50 up to about 1.1 µM and inactive = higher.

Experiments:
Test in all cases: inhibition of tumour cell growth, NCI panel, 48 h
SK-MEL-5 = tested on: SK-MEL-5
SF-268 = tested on: SF-268
UO-31 = tested on: UO-31
HCC 2998 = tested on: HCC 2998
K562 = tested on: K562
PC-3 = tested on: PC-3
T47D = tested on: T47D
SN12C = tested on: SN12C
UACC-62 = tested on: UACC-62
NCI-H226 = tested on: NCI-H226
Hs-578T = tested on: Hs-578T
MDA-MB-435 = tested on: MDA-MB-435
IGROV-1 = tested on: IGROV-1
HCT-15 = tested on: HCT-15
RXF 393 = tested on: RXF 393
OVCAR-5 = tested on: OVCAR-5
KM12 = tested on: KM12
SK-MEL-2 = tested on: SK-MEL-2
SK-MEL-28 = tested on: SK-MEL-28
MCF7 = tested on: MCF7
HT-29 = tested on: HT-29
UACC-257 = tested on: UACC-257
OVCAR-3 = tested on: OVCAR-3
COLO 205 = tested on: COLO 205
MDA-N = tested on: MDA-N
U-251 = tested on: U-251
TK-10 = tested on: TK-10
M14 = tested on: M14
SNB-19 = tested on: SNB-19
ACHN = tested on: ACHN
CAKI-1 = tested on: CAKI-1
HCT-116 = tested on: HCT-116
A549 = tested on: A549
SF-539 = tested on: SF-539
DU-145 = tested on: DU-145
A498 = tested on: A498
SR = tested on: SR
MOLT-4 = tested on: MOLT-4
NCI-H23 = tested on: NCI-H23
OVCAR-4 = tested on: OVCAR-4
NCI-H522 = tested on: NCI-H522
SK-OV-3 = tested on: SK-OV-3
RPMI-8226 = tested on: RPMI-8226
HOP-92 = tested on: HOP-92
786-0 = tested on: 786-0
MDA-MB-231 = tested on: MDA-MB-231
Malme-3M = tested on: Malme-3M
EKVX = tested on: EKVX
BT-549 = tested on: BT-549
SNB-75 = tested on: SNB-75
OVCAR-8 = tested on: OVCAR-8
SW-620 = tested on: SW-620
HOP-62 = tested on: HOP-62
SF-295 = tested on: SF-295
NCI/ADR-RES = tested on: NCI/ADR-RES
NCI-H460 = tested on: NCI-H460
CCRF-CEM = tested on: CCRF-CEM
LOX IMVI = tested on: LOX IMVI
HL-60 = tested on: HL-60

Q: Which results are given for `CC1=C(Nc2c(C)cc(O)cc2O)C(=O)C=c2oc3c(c21)C(C)=C(Nc1c(C)cc(O)cc1O)C(=O)C=3`?
A: GI50 (SK-MEL-5): 17.2 µM (inactive); GI50 (SF-268): 45.5 µM (inactive); GI50 (UO-31): 50.8 µM (inactive); GI50 (HCC 2998): 23.2 µM (inactive); GI50 (K562): 34 µM (inactive); GI50 (PC-3): 24.2 µM (inactive); GI50 (T47D): 52.4 µM (inactive); GI50 (SN12C): 30.4 µM (inactive); GI50 (UACC-62): 37.2 µM (inactive); GI50 (NCI-H226): 43.9 µM (inactive); GI50 (Hs-578T): 32 µM (inactive); GI50 (MDA-MB-435): 15.9 µM (inactive); GI50 (IGROV-1): 30.1 µM (inactive); GI50 (HCT-15): 46.6 µM; GI50 (RXF 393): > 100 µM (inactive); GI50 (OVCAR-5): 47.5 µM (inactive); GI50 (KM12): 28.9 µM (inactive); GI50 (SK-MEL-2): 34.1 µM (inactive); GI50 (SK-MEL-28): 52.5 µM (inactive); GI50 (MCF7): 26.5 µM (inactive); GI50 (HT-29): 28 µM (inactive); GI50 (UACC-257): 29.8 µM (inactive); GI50 (OVCAR-3): 15.6 µM (inactive); GI50 (COLO 205): 20.8 µM (inactive); GI50 (MDA-N): 18.6 µM (inactive); GI50 (U-251): 37.8 µM (inactive); GI50 (TK-10): 94.8 µM (inactive); GI50 (M14): 28.8 µM (inactive); GI50 (SNB-19): 35.8 µM (inactive); GI50 (ACHN): > 100 µM (inactive); GI50 (CAKI-1): > 100 µM (inactive); GI50 (HCT-116): 26.5 µM (inactive); GI50 (A549): 38.5 µM (inactive); GI50 (SF-539): 19.5 µM (inactive); GI50 (DU-145): 54.3 µM (inactive); GI50 (A498): > 100 µM (inactive); GI50 (SR): 0.0313 µM (active); GI50 (MOLT-4): 27.4 µM (inactive); GI50 (NCI-H23): 20.3 µM (inactive); GI50 (OVCAR-4): 57.4 µM (inactive); GI50 (NCI-H522): 20.1 µM (inactive); GI50 (SK-OV-3): 45.7 µM (inactive); GI50 (RPMI-8226): 28.8 µM (inactive); GI50 (HOP-92): > 100 µM (inactive); GI50 (786-0): 54.1 µM (inactive); GI50 (MDA-MB-231): 36.6 µM (inactive); GI50 (Malme-3M): 21.9 µM (inactive); GI50 (EKVX): 47.5 µM (inactive); GI50 (BT-549): 32.9 µM (inactive); GI50 (SNB-75): 25.6 µM (inactive); GI50 (OVCAR-8): 38 µM (inactive); GI50 (SW-620): 35.5 µM (inactive); GI50 (HOP-62): 32.8 µM (inactive); GI50 (SF-295): 24.4 µM (inactive); GI50 (NCI/ADR-RES): > 100 µM (inactive); GI50 (NCI-H460): 30.3 µM (inactive)

Q: How did the GI50 (SK-MEL-5) turn out when `COC(=O)/C=C\C(C#N)(C#N)/N=C/c1sccc1C` was run?
A: 1.55 µM (inactive)

Q: What about the GI50 (SF-268) of the same molecule?
A: 12.3 µM (inactive)

Q: What about the GI50 (UO-31) of the same molecule?
A: 1.77 µM (inactive)

Q: And the GI50 (HCC 2998)?
A: 15.2 µM (inactive)

Q: And the GI50 (K562)?
A: 3.3 µM (inactive)

Q: What about the GI50 (PC-3) of the same molecule?
A: 7.6 µM (inactive)

Q: What about the GI50 (CCRF-CEM) of the same molecule?
A: 1 µM (active)

Q: And the GI50 (T47D)?
A: 2.62 µM (inactive)

Q: And the GI50 (SN12C)?
A: 8.59 µM (inactive)

Q: And the GI50 (UACC-62)?
A: 6.62 µM (inactive)

Q: And the GI50 (NCI-H226)?
A: 3.33 µM (inactive)

Q: And the GI50 (Hs-578T)?
A: 7.78 µM (inactive)

Q: What about the GI50 (MDA-MB-435) of the same molecule?
A: 3.58 µM (inactive)

Q: And the GI50 (LOX IMVI)?
A: 1.3 µM (inactive)

Q: What about the GI50 (IGROV-1) of the same molecule?
A: 15 µM (inactive)

Q: And the GI50 (HCT-15)?
A: 1.96 µM

Q: What about the GI50 (RXF 393) of the same molecule?
A: 2 µM (inactive)

Q: And the GI50 (OVCAR-5)?
A: 5.26 µM (inactive)

Q: And the GI50 (KM12)?
A: 16.2 µM (inactive)

Q: What about the GI50 (SK-MEL-2) of the same molecule?
A: 15.8 µM (inactive)

Q: What about the GI50 (SK-MEL-28) of the same molecule?
A: 4.88 µM (inactive)

Q: What about the GI50 (MCF7) of the same molecule?
A: 1.56 µM (inactive)

Q: And the GI50 (HT-29)?
A: 1.73 µM (inactive)

Q: And the GI50 (UACC-257)?
A: 11.1 µM (inactive)

Q: And the GI50 (OVCAR-3)?
A: 5.05 µM (inactive)

Q: And the GI50 (COLO 205)?
A: 1.22 µM (inactive)

Q: What about the GI50 (MDA-N) of the same molecule?
A: 3.59 µM (inactive)

Q: And the GI50 (HL-60)?
A: 1.88 µM (inactive)

Q: And the GI50 (U-251)?
A: 10 µM (inactive)

Q: What about the GI50 (TK-10) of the same molecule?
A: 1.86 µM (inactive)

Q: And the GI50 (M14)?
A: 2.28 µM (inactive)

Q: And the GI50 (SNB-19)?
A: 17.3 µM (inactive)

Q: What about the GI50 (ACHN) of the same molecule?
A: 1.87 µM (inactive)

Q: And the GI50 (CAKI-1)?
A: 1.93 µM (inactive)

Q: What about the GI50 (HCT-116) of the same molecule?
A: 2.43 µM (inactive)

Q: What about the GI50 (A549) of the same molecule?
A: 15 µM (inactive)

Q: And the GI50 (DU-145)?
A: 7.53 µM (inactive)

Q: And the GI50 (A498)?
A: 14.8 µM (inactive)

Q: And the GI50 (SR)?
A: 2.36 µM (inactive)

Q: What about the GI50 (MOLT-4) of the same molecule?
A: 1.2 µM (inactive)

Q: What about the GI50 (NCI-H23) of the same molecule?
A: 7.03 µM (inactive)

Q: What about the GI50 (OVCAR-4) of the same molecule?
A: 4.53 µM (inactive)

Q: And the GI50 (NCI-H522)?
A: 0.268 µM (active)

Q: What about the GI50 (SK-OV-3) of the same molecule?
A: 18.4 µM (inactive)

Q: What about the GI50 (RPMI-8226) of the same molecule?
A: 5.04 µM (inactive)

Q: And the GI50 (HOP-92)?
A: 1.91 µM (inactive)

Q: What about the GI50 (786-0) of the same molecule?
A: 1.94 µM (inactive)

Q: What about the GI50 (MDA-MB-231) of the same molecule?
A: 0.589 µM (active)

Q: And the GI50 (Malme-3M)?
A: 3.18 µM (inactive)

Q: What about the GI50 (EKVX) of the same molecule?
A: 3.59 µM (inactive)

Q: What about the GI50 (BT-549) of the same molecule?
A: 3.15 µM (inactive)

Q: What about the GI50 (SNB-75) of the same molecule?
A: 14.8 µM (inactive)

Q: And the GI50 (OVCAR-8)?
A: 2.47 µM (inactive)

Q: And the GI50 (SW-620)?
A: 1.58 µM (inactive)

Q: And the GI50 (HOP-62)?
A: 14.7 µM (inactive)

Q: And the GI50 (SF-295)?
A: 18.2 µM (inactive)

Q: What about the GI50 (NCI/ADR-RES) of the same molecule?
A: 11.8 µM (inactive)

Q: And the GI50 (NCI-H460)?
A: 16.4 µM (inactive)
